The source of these data is US20260028354A1, “TETRAHYDRONAPHTHALENE DERIVATIVES AS ESTROGEN RECEPTOR DEGRADERS” (REGENT OF THE UNIVERSITY OF MICHIGAN, priority 2022, published 2026).

The target of one test is ER (Homo sapiens (Human), UniProt P03372). Kind of test: In-cell western blot analysis of ER for "B" compounds. The settings on record: 16 hours, read-out: ICW DC50. The format is cell-based. The method, then:
R^T 2h, gentle shaking. Negative control: cells plus secondary antibodies (no primary antibodies); e, wash x 4 with PBS+0.05-0.1% Tween 20, gentel shaking; f, anti-rabbit-680 and anti-mouse-800 (both 1:1000 in LiCor block+0.05% Tween20, R^T 1h, gentle shaking, no light. LI-COR: 0.2% to reduce background; g, wash×4 with PBS+0.05% Tween 20, gental shaking; h, add 100 μL or 25 μL of PBS to each well and read on CLX plate reader. The relative ER percentage in treated cells were obtained by comparing the values of treated wells to those in untreated and DMSO-treated wells as 100%.

Test [1] is described as follows: Cell growth assay (WST-8) for "B" compounds. The format is cell-based. The settings on record: T47D, read-out: Cell growth Inhibition in T47D cell line IC50. Summed up: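 Four-day compound exposure of cells plated at 1500/well the day before. Read-out is WST-8 (10%, 2.5 h, 37 °C) absorbance at 450 nm, normalized to vehicle control over three independent repeats.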

SMILES strings stand for the structures. Like-named read-outs stand apart in the source and are kept apart here. Bounds are passed on as bounds.

Sequence of ER (P03372 whole entry): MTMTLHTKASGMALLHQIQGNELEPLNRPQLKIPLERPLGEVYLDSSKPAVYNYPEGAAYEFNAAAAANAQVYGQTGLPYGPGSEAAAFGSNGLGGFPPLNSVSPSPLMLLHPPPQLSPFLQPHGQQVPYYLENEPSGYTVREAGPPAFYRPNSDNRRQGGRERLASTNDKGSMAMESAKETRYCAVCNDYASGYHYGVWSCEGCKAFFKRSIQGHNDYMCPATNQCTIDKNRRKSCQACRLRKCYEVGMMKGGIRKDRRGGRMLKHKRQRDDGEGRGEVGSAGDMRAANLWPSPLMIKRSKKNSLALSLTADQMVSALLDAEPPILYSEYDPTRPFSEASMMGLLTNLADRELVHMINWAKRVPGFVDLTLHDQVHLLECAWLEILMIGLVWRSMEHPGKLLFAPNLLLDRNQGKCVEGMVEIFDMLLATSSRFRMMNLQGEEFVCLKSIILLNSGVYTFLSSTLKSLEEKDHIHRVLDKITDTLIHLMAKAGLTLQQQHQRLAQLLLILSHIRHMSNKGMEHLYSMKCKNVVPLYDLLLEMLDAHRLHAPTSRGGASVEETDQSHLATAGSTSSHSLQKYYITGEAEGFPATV

Consider `O=C1CCC(N2Cc3c(ccc4c3OCC43CCN(CC4COC5(CCN(c6ccc([C@@H]7c8ccc(O)cc8CC[C@@H]7c7ccccc7)cc6)CC5)O4)CC3)C2=O)C(=O)N1` (stereo partly drawn) [Compound B350, 3-(1′-((8-(4-((1R,2S)-6-hydroxy-2-phenyl-1,2,3,4-tetrahydronaphthalen-1-yl)phenyl)-1,4-dioxa-8-azaspiro[4.5]decan-2-yl)methyl)-6-oxo-6,8-dihydro-2H,7H-spiro[furo[2,3-e]isoindole-3,4′-piperidin]-7-yl)piperidine-2,6-dione], for which the DC50 on ER is 10 to 100 nM. Besides, in test [1], the IC50 was > 10 nM.
In the case of `O=C1CC[C@H](N2Cc3c(ccc4c3OC[C@H]3CN(CC5COC6(CCN(c7ccc([C@@H]8c9cc(Cl)c(O)cc9CC[C@@H]8c8ccccc8)cc7)CC6)OC5)CCN43)C2=O)C(=O)N1` [Compound B340, (S)-3-((R)-7-((9-(4-((1R,2S)-7-chloro-6-hydroxy-2-phenyl-1,2,3,4-tetrahydronaphthalen-1-yl)phenyl)-1,5-dioxa-9-azaspiro[5.5]undecan-3-yl)methyl)-1-oxo-1,3,5,5a,6,7,8,9-octahydro-2H-pyrazino[1′,2′:4,5][1,4]oxazino[2,3-e]isoindol-2-yl)piperidine-2,6-dione], the DC50 at ER lay in the range of 10 to 100 nM. Moreover, the concentration for half-maximal inhibition (IC50) in test [1] (T47D cell line) was in the range of 1 to 10 nM.
The like results for `O=C1CCC(N2C(=O)c3cc4c(cc3C2=O)CN(CC(=O)N2CC3(CC(Nc5ccc([C@@H]6c7ccc(O)cc7CC[C@@H]6c6ccccc6)cc5)C3)C2)C4)C(=O)N1` (stereo partly drawn) [Compound B163, 2-(2,6-dioxopiperidin-3-yl)-6-(2-(6-((4-((1R,2S)-6-hydroxy-2-phenyl-1,2,3,4-tetrahydronaphthalen-1-yl)phenyl)amino)-2-azaspiro[3.3]heptan-2-yl)-2-oxoethyl)-6,7-dihydropyrrolo[3,4-f]isoindole-1,3(2H,5H)-dione] were, in that order, < 10 nM and 1 to 10 nM.
Regarding `O=C1CCC(N2Cc3c(ccc4c3N3CCN(CC5CCN(c6ccc([C@@H]7c8ccc(O)cc8CC[C@@H]7c7ccccc7)cc6)CC5)C[C@H]3CO4)C2=O)C(=O)N1` (stereo partly drawn) [Compound B243, 3-((S)-9-((1-(4-((1R,2S)-6-hydroxy-2-phenyl-1,2,3,4-tetrahydronaphthalen-1-yl)phenyl)piperidin-4-yl)methyl)-3-oxo-1,3,7,7a,8,9,10,11-octahydro-2H-pyrazino[1′,2′:4,5][1,4]oxazino[3,2-e]isoindol-2-yl)piperidine-2,6-dione], the DC50 on ER lay within 10 to 100 nM. Besides, the half-inhibitory concentration (IC50) in test [1] (T47D cell line) lay within 1 to 10 nM.
As for `O=C1CC[C@H](N2Cc3c(ccc4c3OCC43CCN(C[C@@H]4CCC5(CCN(c6ccc([C@@H]7c8ccc(O)cc8CC[C@@H]7c7ccccc7)cc6)CC5)OC4)CC3)C2=O)C(=O)N1` [Compound B400, (S)-3-(1′-(((S)-9-(4-((1R,2S)-6-hydroxy-2-phenyl-1,2,3,4-tetrahydronaphthalen-1-yl)phenyl)-1-oxa-9-azaspiro[5.5]undecan-3-yl)methyl)-6-oxo-6,8-dihydro-2H,7H-spiro[furo[2,3-e]isoindole-3,4′-piperidin]-7-yl)piperidine-2,6-dione], on ER, the DC50 is < 10 nM. Besides, in test [1], the 50% inhibitory concentration (IC50) is < 1 nM.
The corresponding values for `O=C1CC[C@H](N2Cc3c(ccc4c3OCC43CCN(C[C@H]4CCC5(CCN(c6ccc([C@@H]7c8ccc(O)cc8CC[C@@H]7c7ccccc7)cc6)CC5)OC4)CC3)C2=O)C(=O)N1` [Compound B401, (S)-3-(1′-(((R)-9-(4-((1R,2S)-6-hydroxy-2-phenyl-1,2,3,4-tetrahydronaphthalen-1-yl)phenyl)-1-oxa-9-azaspiro[5.5]undecan-3-yl)methyl)-6-oxo-6,8-dihydro-2H,7H-spiro[furo[2,3-e]isoindole-3,4′-piperidin]-7-yl)piperidine-2,6-dione] are < 10 nM and < 1 nM.
Turning to `O=C1CCC(N2Cc3cc4c(cc3C2=O)OC[C@@H]2CN(C(=O)CN3CC5(CCN(c6ccc([C@@H]7c8ccc(O)cc8CC[C@@H]7c7ccccc7)cc6)C5)C3)CCN42)C(=O)N1` (stereo partly drawn) [Compound B206, 3-((S)-3-(2-(6-(4-((1R,2S)-6-hydroxy-2-phenyl-1,2,3,4-tetrahydronaphthalen-1-yl)phenyl)-2,6-diazaspiro[3.4]octan-2-yl)acetyl)-8-oxo-1,2,3,4,4a,5,8,10-octahydro-9H-pyrazino[1′,2′:4,5][1,4]oxazino[2,3-f]isoindol-9-yl)piperidine-2,6-dione], on ER, the DC50 is < 10 nM. For the same molecule, in test [1] (T47D cell line), the IC50 was < 1 nM.
The like results for `O=C1CCC(N2Cc3cc4c(cc3C2=O)OC[C@@H]2CN(CC3CCC5(C3)CN(c3ccc([C@@H]6c7ccc(O)cc7CC[C@@H]6c6ccccc6)cc3)C5)CCN42)C(=O)N1` (stereo partly drawn) [Compound B358, 3-((4aS)-3-((2-(4-((1R,2S)-6-hydroxy-2-phenyl-1,2,3,4-tetrahydronaphthalen-1-yl)phenyl)-2-azaspiro[3.4]octan-6-yl)methyl)-8-oxo-1,2,3,4,4a,5,8,10-octahydro-9H-pyrazino[1′,2′:4,5][1,4]oxazino[2,3-f]isoindol-9-yl)piperidine-2,6-dione] were, in that order, 10 to 100 nM and > 10 nM.
The like results for `O=C1CCC(N2Cc3c(ccc4c3OC[C@H]3CN(CC5CC6(CCN(c7ccc([C@@H]8c9ccc(O)cc9CC[C@@H]8c8ccccc8)cc7)C6)C5)CCN43)C2=O)C(=O)N1` (stereo partly drawn) [Compound B232, 3-((R)-7-((6-(4-((1R,2S)-6-hydroxy-2-phenyl-1,2,3,4-tetrahydronaphthalen-1-yl)phenyl)-6-azaspiro[3.4]octan-2-yl)methyl)-1-oxo-1,3,5,5a,6,7,8,9-octahydro-2H-pyrazino[1′,2′:4,5][1,4]oxazino[2,3-e]isoindol-2-yl)piperidine-2,6-dione] were, in that order, > 100 nM and 1 to 10 nM.
Consider `O=C1CC[C@H](NC(=O)c2ccc3c(n2)OC[C@H]2CN(CC4CC5(CCN(c6ccc([C@@H]7c8ccc(O)cc8CC[C@@H]7c7ccccc7)cc6)CC5)C4)CCN32)C(=O)N1` [Compound B225, (R)-N-((S)-2,6-dioxopiperidin-3-yl)-3-((7-(4-((1R,2S)-6-hydroxy-2-phenyl-1,2,3,4-tetrahydronaphthalen-1-yl)phenyl)-7-azaspiro[3.5]nonan-2-yl)methyl)-1,2,3,4,4a,5-hexahydropyrazino[1,2-d]pyrido[2,3-b][1,4]oxazine-8-carboxamide], for which, on ER, the DC50 was 10 to 100 nM. In test [1] (T47D cell line), the 50% inhibitory concentration (IC50) was 1 to 10 nM.
For the molecule `O=C1CCC(N2Cc3cc4c(cc3C2=O)OC[C@@H]2CN(CC(=O)N3CCC5(CC3)CN(c3ccc([C@@H]6c7ccc(O)cc7CC[C@@H]6c6ccccc6)cc3)C5)CCN42)C(=O)N1` (stereo partly drawn) [Compound B160, 3-((S)-3-(2-(2-(4-((1R,2S)-6-hydroxy-2-phenyl-1,2,3,4-tetrahydronaphthalen-1-yl)phenyl)-2,7-diazaspiro[3.5]nonan-7-yl)-2-oxoethyl)-8-oxo-1,2,3,4,4a,5,8,10-octahydro-9H-pyrazino[1′,2′:4,5][1,4]oxazino[2,3-f]isoindol-9-yl)piperidine-2,6-dione], the DC50 at ER is < 10 nM.
